Columns and labels:
Assay type in all cases: physicochemical
[1] = Dynamic vapor sorption (DVS) hygroscopicity; conditions: between 0% and 95% RH, 25° C.
Description: Form A may be observed EP-1. […] (peak temperature) which is accompanied by 5.9 wt % weight loss up to ˜150° C. in the TGA curve (FIG. 3). […] Form A is hygroscopic as indicated by water adsorption of 5.8 wt % at 80% RH measured by dynamic vapor sorption (DVS) (FIG. 4). A solid is considered moderately hygroscopic when water uptake at 25° C./80% RH is between 2-15 wt % based on criteria of European Pharmacopeia.
Form B of EP-1 trihydrate (x is 3) is a trihydrate as confirmed by single crystal analysis. The experimental XRPD pattern of Form B matches well with the simulated one from single crystal data (FIG. 6). This was also confirmed by DSC and TGA data (FIG. 7 and FIG. 8, respectively). DSC data indicates Form B dehydrates at ˜132° C. […] Form B is slightly hygroscopic as evidenced by a weight change of ˜0.3% between 0% and 95% RH (FIG. 9), (data collection was programmed from 95% RH-0% RH-95% RH at a step size of 10% RH at 25° C.).

[2] = Solid-state stability (chemical and physical); conditions: 5° C. Closed Dish, 7 Days
Description: Chemical Stability: Accurately weighed ˜10 mg Form B was placed into four 10-ml volumetric flasks. The samples were stored at 5° C. closed dish, 25° C./57% RH open dish, 40° C./75% RH open dish, and 60° C. closed dish for 7 days. The sample stored at 5° C. was used as a control. Assay and total related substances for each sample were checked at the end of 7 days.
Physical Stability: Accurately weighed ˜15 mg of Form B was placed into 5-ml glass vials and the samples were stored at 5° C. closed dish, 25° C./57% RH open dish, 40° C./75% RH open dish, and 60° C. closed dish for 7 days. Samples were analyzed by XRPD and TGA (FIG. 24).

[3] = Solution stability in pH buffers
Description: 0.1 mg/ml solutions of Form B were prepared in five buffers, including 0.01N HCl (pH 2), 50 mM sodium citrate (pH 4), 50 mM sodium citrate (pH 6), 50 mM sodium phosphate (pH 8), and 50 mM sodium carbonate (pH 10). Methanol was added as a co-solvent to dissolve Form B in buffers (i.e., 10% (v/v) in pH 2, 4, and 6 buffers, 20% (v/v) in pH 8 buffer, and 30% (v/v) in pH 10 buffer). Each buffer solution containing Form B was stored at 3 different temperatures: 25° C., 37° C., and 50° C. Aliquots were taken for HPLC analysis after 1 day and 7 days. pH values were also measured before and after the stability experiments.
Preparation of pH Buffers • pH 2: 0.01N HCl solution. Dilute 1 ml of 1 N HCl with H2O up to a total volume of 100 ml. Measure the pH and precisely adjust to pH=2.00 using a few microliters of 1N HCl or 1N NaOH. • pH 4: 50 mM Na citrate buffer. Prepare a 50 mM citric acid solution by diluting 10 ml of 1N citric acid with H2O up to a total volume of 200 ml. Slowly add solid NaOH under stirring to increase the pH to 3.8-4.0 and use a few microliters of 1N NaOH for final adjustment to pH 4.00. • pH 6: 50 mM Na citrate buffer. Use the same procedure as the pH 4 buffer and adjust to pH=6.00 • pH 8: 50 mM Na phosphate buffer. Prepare a 50 mM NaH2PO4 solution by dissolving 6.00 g NaH2PO4 in 1 L of H2O and a 50 mM Na2HPO4 solution by dissolving 7.10 g in 1 L of H2O. Mix 10 ml of the NaH2PO4 solution with 140 ml of the Na2HPO4 solution in a beaker. Adjust to pH 8.00 by addition of small amounts of 50 mM NaH2PO4 or Na2HPO4 solution. • pH 10: 50 mM Na carbonate buffer. Prepare a 50 mM carbonate solution by dissolving 840 mg of sodium bicarbonate (NaHCO3) in about 180 ml of H2O. Slowly adjust the pH to 10.0±0.1 by addition of 1N NaOH. Add water to reach the total volume of 200 ml and adjust to pH 10.00 with 1N NaOH.

[4] = pH 2, 25° C., 24 h, measured pH 2.1
[5] = pH 2, 25° C., 7 days, measured pH 2.1
[6] = pH 2, 37° C., 24 h, measured pH 2.1
[7] = pH 2, 37° C., 7 days, measured pH 2.1
[8] = pH 2, 50° C., 24 h, measured pH 2.1
[9] = pH 2, 50° C., 7 days, measured pH 2.1
[10] = pH 4, 25° C., 24 h, measured pH 4.2
[11] = pH 4, 25° C., 7 days, measured pH 4.2
[12] = pH 4, 37° C., 24 h, measured pH 4.1
[13] = pH 4, 37° C., 7 days, measured pH 4.1
[14] = pH 4, 50° C., 24 h, measured pH 4.1
[15] = pH 4, 50° C., 7 days, measured pH 4.2
[16] = pH 6, 25° C., 24 h, measured pH 6.2
[17] = pH 6, 25° C., 7 days, measured pH 6.2
[18] = pH 6, 37° C., 24 h, measured pH 6.2
[19] = pH 6, 37° C., 7 days, measured pH 6.3
[20] = pH 6, 50° C., 24 h, measured pH 6.2
[21] = pH 6, 50° C., 7 days, measured pH 6.2
[22] = pH 8, 25° C., 24 h, measured pH 8.2
[23] = pH 8, 25° C., 7 days, measured pH 8.2
[24] = pH 8, 37° C., 24 h, measured pH 8.2
[25] = pH 8, 37° C., 7 days, measured pH 8.3
[26] = pH 8, 50° C., 24 h, measured pH 8.3
[27] = pH 8, 50° C., 7 days, measured pH 8.3
[28] = pH 10, 25° C., 24 h, measured pH 10.9
[29] = pH 10, 25° C., 7 days, measured pH 10.9
[30] = pH 10, 37° C., 24 h, measured pH 10.9
[31] = pH 10, 37° C., 7 days, measured pH 10.9
[32] = pH 10, 50° C., 24 h, measured pH 11.0
[33] = pH 10, 50° C., 7 days, measured pH 10.9

weight change [1]: ~0.3% | Physical: XRPD [2]: Form B | Chemical: % Claim (Cs/Ci × 100%) ([2]; sample used as standard for the calculation): 100.0^& % | % area (100% − TRS%) [3, 4]: 98.7% | % claim (Cs/Ci × 100%) [3, 4]: 97.1% | % area (100% − TRS%) [3, 5]: 98.5% | % claim (Cs/Ci × 100%) [3, 5]: 99.1% | % area (100% − TRS%) [3, 6]: 98.7% | % claim (Cs/Ci × 100%) [3, 6]: 96.8% | % area (100% − TRS%) [3, 7]: 98.4% | % claim (Cs/Ci × 100%) [3, 7]: 97.5% | % area (100% − TRS%) [3, 8]: 98.3% | % claim (Cs/Ci × 100%) [3, 8]: 97.0% | % area (100% − TRS%) [3, 9]: 98.4% | % claim (Cs/Ci × 100%) [3, 9]: 97.0% | degradation in solution ([3]; pH 2 to 10 buffers, 25° C., 37° C., 50° C., up to 7 days): less than 5% | % area (100% − TRS%) [3, 10]: 99.4% | % claim (Cs/Ci × 100%) [3, 10]: 97.4% | % area (100% − TRS%) [3, 11]: 99.6% | % claim (Cs/Ci × 100%) [3, 11]: 100.2% | % area (100% − TRS%) [3, 12]: 99.4% | % claim (Cs/Ci × 100%) [3, 12]: 97.6% | % area (100% − TRS%) [3, 13]: 99.5% | % claim (Cs/Ci × 100%) [3, 13]: 99.0% | % area (100% − TRS%) [3, 14]: 99.4% | % claim (Cs/Ci × 100%) [3, 14]: 97.6% | % area (100% − TRS%) [3, 15]: 99.5% | % claim (Cs/Ci × 100%) [3, 15]: 98.7% | % area (100% − TRS%) [3, 16]: 99.2% | % claim (Cs/Ci × 100%) [3, 16]: 98.0% | % area (100% − TRS%) [3, 17]: 99.5% | % claim (Cs/Ci × 100%) [3, 17]: 100.0% | % area (100% − TRS%) [3, 18]: 99.3% | % claim (Cs/Ci × 100%) [3, 18]: 97.9% | % area (100% − TRS%) [3, 19]: 99.4% | % claim (Cs/Ci × 100%) [3, 19]: 99.0% | % area (100% − TRS%) [3, 20]: 99.3% | % claim (Cs/Ci × 100%) [3, 20]: 98.1% | % area (100% − TRS%) [3, 21]: 99.5% | % claim (Cs/Ci × 100%) [3, 21]: 98.9% | % area (100% − TRS%) [3, 22]: 99.2% | % claim (Cs/Ci × 100%) [3, 22]: 98.0% | % area (100% − TRS%) [3, 23]: 99.5% | % claim (Cs/Ci × 100%) [3, 23]: 99.8% | % area (100% − TRS%) [3, 24]: 99.5% | % claim (Cs/Ci × 100%) [3, 24]: 98.4% | % area (100% − TRS%) [3, 25]: 99.5% | % claim (Cs/Ci × 100%) [3, 25]: 99.3% | % area (100% − TRS%) [3, 26]: 99.5% | % claim (Cs/Ci × 100%) [3, 26]: 98.0% | % area (100% − TRS%) [3, 27]: 99.5% | % claim (Cs/Ci × 100%) [3, 27]: 98.8% | % area (100% − TRS%) [3, 28]: 99.4% | % claim (Cs/Ci × 100%) [3, 28]: 98.0% | % area (100% − TRS%) [3, 29]: 99.4% | % claim (Cs/Ci × 100%) [3, 29]: 99.7% | % area (100% − TRS%) [3, 30]: 99.4% | % claim (Cs/Ci × 100%) [3, 30]: 98.2% | % area (100% − TRS%) [3, 31]: 99.4% | % claim (Cs/Ci × 100%) [3, 31]: 99.0% | % area (100% − TRS%) [3, 32]: 99.5% | % claim (Cs/Ci × 100%) [3, 32]: 97.9% | % area (100% − TRS%) [3, 33]: 99.4% | % claim (Cs/Ci × 100%) [3, 33]: 98.9%
SMILES: CC(C)N(C[C@H]1O[C@@H](n2cnc3c(N)ncnc32)[C@H](O)[C@@H]1O)[C@H]1C[C@@H](CCc2nc3cc(C(C)(C)C)ccc3[nH]2)C1 [Form B, (2R,3R,4S,5R)-2-(6-amino-9H-purin-9-yl)-5-((((1r,3S)-3-(2-(5-(tert-butyl)-1H-benzo[d]imidazol-2-yl)ethyl)cyclobutyl)(isopropyl)amino)methyl)tetrahydrofuran-3,4-diol trihydrate]
